Experimental data published in patent publication US7906477B2 (Genspera, Inc., priority 2002, dated 2011).
Square brackets hold non-standard residues; d marks the D form. Ends that are not written are not given here. Peptide text beside a SMILES is read from it. Tyr(3-NO2) = N[C@@H](Cc1ccc(O)c([N+](=O)[O-])c1)C(=O)O; Abz = aminobenzoic acid; 2Abz = Nc1ccccc1C(=O)O; Dap = NC[C@H](N)C(=O)O

Columns and labels:
[1] = biological target: T1, hK2 (Homo sapiens, UniProt P20151); assay: hK2 mediated hydrolysis of peptide substrates in solution (fluorescence); assay type: biochemical; conditions: for hK2 mediated hydrolysis (in words, FIG. 2): substrates 250 μM, 8 μg/ml hK2 in PBS buffer; for digestion by hK2 of arginine-free peptides (in words): in solution, even after prolonged incubation
T1 construct: made in house
Description: FIG. 2 depicts a graph of hK2 mediated hydrolysis of peptide substrates identified through the screening of a random peptide library [Y′GKARAF-Dap-FK′ (SEQ ID NO:36), Y′GKAKPR-Dap-FK′ (SEQ ID NO:37), Y′GKAFRR-Dap-FK′ (SEQ ID NO:38), Y′GKAMRQ-Dap-FK′ (SEQ ID NO:39) and Y′GSKGHFKL-Dap-F-K′ (SEQ ID NO:40)]. Substrates (250 μM) were incubated with 8 μg/ml hK2 in PBS buffer. Hydrolysis of peptide results in increased fluorescence, as measured using a 96 well fluorometer. […] To determine 100% digestion, trypsin was added (50 mg/ml) and samples were incubated to 37° C. for 30 min and the fluorescence was determined. The percentage digested is determined by dividing fluorescence units of sample by fluorescence units of control fully digested peptide.
A mutant form of hK2 was utilized in which the amino acids −5 to −1 of the propeptide sequence of hK2 (i.e. Leu-Ile-Gln-Ser-Arg; SEQ ID NO:15) were mutated to Asp-Asp-Asp-Asp-Lys (SEQ ID NO:16) to generate a pro-hK2 protein that can be activated to functional hK2 by […] (Lovgren, J. et al. (1999) Eur. J. Biochem. 266:1050-1055). Compared with wild-type hK2, expression of the propeptide hK2 mutant increases the expression levels up to 15-40-fold (Lovgren, J. et al. (1999) Eur. J. Biochem. 266:1050-1055). The generation and characteristics of this mutant hK2 have been previously described (Lovgren, J. et al. (1999) Eur. J. Biochem. 266:1050-1055).
For validation of the Edman results, peptides were re-synthesized using a Rainin PS3 peptide synthesizer with HBTU/NMM activation. Peptides were synthesized on PEGA resin for on-bead analysis or on Fmoc-Lys(Mtt)-Wang resin for solution assays. The Fmoc-Lys(Mtt)-Wang resin was first deprotected with 2% TFA in DCM (3×2 min). The ε-amine of lysine was then acylated with Boc-Abz. Deprotection/cleavage was performed in TFA/TIS/water (95:2.5:2.5 v/v) for 2-3 hours. Peptides were ether precipitated, dried and purified by C18-HPLC using a linear gradient of acetonitrile (0.1% TFA), lyophilized and dissolved in DMSO. Peptide identities were confirmed by analysis on a Perseptive Voyager DE-STR MALDI-TOF using dihydroxy benzoic acid as a matrix. Fluorescence measurements were performed on a Fluoroskan II 96-well plate reader (ICN biomedicals, Costa Mesa, Calif.; excitation, 355 nm; emission, 460 nm). Kinetic parameters were calculated as described earlier (Denmeade, S. R. et al. (1997) Cancer Res. 57:4924-4930).
The combinatorial screen identified seven arginine-containing peptides. Four of these were re-synthesized (X1-X2-X3=RAF, KPR, FRR and MRQ respectively). Three other lead sequences were not re-synthesized (X1-X2-X3=IQR, FRK and VRQ respectively). All four arginine-containing sequences that were re-synthesized reproduced fluorescence when these peptides were digested on-bead with hK2. For a more quantitative analysis, the fluorescence-quenched peptides were cleaved off the resin and purified by HPLC. The rate of hydrolysis was quantified by measuring increase in fluorescence (Figure). […] In less than five minutes, more than 50% of the peptide was digested (500 μM peptide, 4 μg/ml hK2). For the other peptides, digestion of the same amount of peptide took 19-29 minutes. […] In subsequent studies, hydrolysis rates using the Y′GKAFRR-Dap-F-K′ (SEQ ID NO:38) peptide were analyzed by Lineweaver-Burke reciprocal plots.

[2] = plasma stability in 50% human plasma; assay type: in vitro ADME; conditions: for remaining at 3 h, 500 μM: HPLC, read-out: parent peptide remaining after 3 hours; for degradation after overnight incubation (in words): human plasma
Description: FIG. 5 depicts the stability of Ac-GKAFRR-L12ADT (SEQ ID NO:41) in human plasma after a 24 hour incubation, as determined by HPLC analysis. Ac-GKAFRR-L12ADT (SEQ ID NO:41) was incubated in 50% human plasma for 24 hours at room temperature. Peak 1 represents an unidentified plasma contaminant that was also present in control plasma. Peaks 2 and 3 both represent Ac-GKAFRR-L12ADT (SEQ ID NO:41) as confirmed by MALDI-TOF mass spectrometric analysis.
(§1) Mouse plasma was obtained from cardiac puncture of anesthetized mice prior to euthanization by CO2 overdose according to protocols approved by the Johns Hopkins Animal Care and Use Committee. Human plasma was obtained from discarded, pooled, and unlabeled clinical samples. Plasma was diluted to 50% in Tris buffer (50 mM Tris-HCl, 100 mM NaCl, pH 7.8). To this, test peptides/prodrugs were added to 250 or 500 μM final concentration. After the incubation period, one volume (200 μl) of acetonitrile was added to precipitate the protein fraction and the tube was centrifuged at 14,000 for 2 min. The supernatant was analyzed by C18-HPLC and the collected peaks were analyzed by MALDI-TOF as described above.
(§2) Arginine-containing peptides are potential substrates for the wide variety of other trypsin-like proteases that are present in the blood and may have residual activity in the blood. The plasma stability of an hK2 peptide substrate may therefore be limited and this would have significant consequences related to the development of an hK2 activated prodrug. Therefore, two fluorescence quenched hK2 peptide substrates peptides were incubated in 50% mouse or human plasma (diluted in PBS buffer) to determine stability using a plate-reader. As observed with arginine containing peptides from the SPOT analysis above, none of the arginine-containing, fluorescence quenched hK2peptide substrates were stable in human or mouse plasma. Fluorescence-quenched Y′GKAFRR-Dap-GK′ (SEQ ID NO:42) and Y′GKAFRRLGK′ (SEQ ID NO:21) (500 μM each) were hydrolyzed when incubated in 50% mouse or human plasma (FIG. 7). Mouse plasma degraded the peptides faster than human plasma (FIG. 7). […] In human plasma, more peptide remained after 3 hours (˜25%). […] The proteolytic activity from plasma was never affected by repeated freeze-thaw cycles or by storage of the mouse plasma alone at room temperature for several days.
To determine the plasma stability for the hK2 prodrug, the prodrug was incubated in 50% fresh heparinized (1%) plasma for 24 hours at room temperature, precipitated the proteins by adding one volume of 1% TFA in acetonitrile and analyzed the supernatant by HPLC. Unexpectedly, BPLC analysis after 24 hrs incubation in plasma yielded only a single peak corresponding to the hK2 prodrug (FIG. 5). MALDI-TOF MS of the isolated single peak confirmed the stability of the molecule.

[3] = plasma stability in 50% mouse plasma; assay type: in vitro ADME; conditions: 500 μM; for parent peptide remaining after 3 hours (in words): HPLC
Description: as §1, §2

T1 sequence (P20151 25-261): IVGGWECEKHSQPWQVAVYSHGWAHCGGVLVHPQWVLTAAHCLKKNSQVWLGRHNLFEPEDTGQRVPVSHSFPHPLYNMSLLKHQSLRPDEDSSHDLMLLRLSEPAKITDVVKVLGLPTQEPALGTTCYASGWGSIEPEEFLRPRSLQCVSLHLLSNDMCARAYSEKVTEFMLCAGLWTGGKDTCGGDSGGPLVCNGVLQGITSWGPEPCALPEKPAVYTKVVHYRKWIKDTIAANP

Compound: C[C@H](NC(=O)[C@H](CCCCN)NC(=O)CNC(=O)[C@@H](N)Cc1ccc(O)c([N+](=O)[O-])c1)C(=O)N[C@@H](Cc1ccccc1)C(=O)N[C@@H](CCCNC(=N)N)C(=O)N[C@@H](CCCNC(=N)N)C(=O)N[C@@H](CN)C(=O)N[C@@H](Cc1ccccc1)C(=O)N[C@@H](CCCCNC(=O)c1ccccc1N)C(=O)O [Y′GKAFRR-Dap-F-K′] (H-[Tyr(3-NO2)]GKAFRR[Dap]FK(2Abz)-OH; N-terminus assumed)
- maximum digestion ([1]; 500 μM peptide, 4 μg/ml hK2): 70-75%
- time in which more than 50% of the peptide was digested ([1]; 500 μM peptide, 4 μg/ml hK2): less than five
- time to reach maximum digestion ([1]; 500 μM peptide, 4 μg/ml hK2): less than 15 minutes
- hK2 mediated hydrolysis (in words, FIG. 2) [1]: by far exceeded all other substrates

Compound: C[C@H](NC(=O)[C@H](CCCCN)NC(=O)CNC(=O)[C@@H](N)Cc1ccc(O)c([N+](=O)[O-])c1)C(=O)N[C@@H](Cc1ccccc1)C(=O)N[C@@H](CCCNC(=N)N)C(=O)N[C@@H](CCCNC(=N)N)C(=O)N[C@@H](CN)C(=O)NCC(=O)N[C@@H](CCCCNC(=O)c1ccccc1N)C(=O)O [Y′GKAFRR-Dap-GK′] (H-[Tyr(3-NO2)]GKAFRR[Dap]GK(2Abz)-OH; N-terminus assumed)
- remaining at 3 h, 500 μM ([2]; 50% human plasma, 500 μM): ~25%
- degradation after overnight incubation (in words) [2]: complete degradation
- parent peptide remaining after 3 hours (in words) [3]: almost no parent peptide remained

Compound: CC(C)C[C@H](NC(=O)[C@H](CCCNC(=N)N)NC(=O)[C@H](CCCNC(=N)N)NC(=O)[C@H](Cc1ccccc1)NC(=O)[C@H](C)NC(=O)[C@H](CCCCN)NC(=O)CNC(=O)[C@@H](N)Cc1ccc(O)c([N+](=O)[O-])c1)C(=O)NCC(=O)N[C@@H](CCCCNC(=O)c1ccccc1N)C(=O)O [Y′GKAFRRLGK′] (H-[Tyr(3-NO2)]GKAFRRLGK(2Abz)-OH)
- hK2 hydrolysis rate after substitution of Dap-F with Leu-Gly (in words) ([1]; compare FIG. 2 with FIG. 8): only a modest decrease in hydrolysis rate
- relative stability of the peptides (in words) ([2]; 50% human plasma, 500 μM): less stable than the Dap containing peptide
- remaining at 3 h, 500 μM ([2]; 50% human plasma, 500 μM): ~25%
- degradation after overnight incubation (in words) [2]: complete degradation
- relative stability of the peptides (in words) [3]: less stable than the Dap containing peptide
- parent peptide remaining after 3 hours (in words) [3]: almost no parent peptide remained

Compound: Y′GSKGHFHL-Dap-K′: arginine-free fluorescence-quenched peptide from SPOT analysis sequence ([Tyr(3-NO2)]GSKGHFHL[Dap]K(Abz))
- digestion by hK2 of arginine-free peptides (in words) [1]: none of these three arginine free peptides were digested by hK2

Compound: Y′GSKGHFKL-Dap-F-K′: fluorescence-quenched substrate without arginine ([Tyr(3-NO2)]GSKGHFKL[Dap]FK(Abz))
- hK2 mediated hydrolysis (in words, FIG. 2) [1]: did not show any hydrolysis

Compound: Y′GSKGHFKL-Dap-K′: arginine-free fluorescence-quenched peptide, P1 lysine ([Tyr(3-NO2)]GSKGHFKL[Dap]K(Abz))
- digestion by hK2 of arginine-free peptides (in words) [1]: none of these three arginine free peptides were digested by hK2

Compound: Y′GSKGPFKL-Dap-K′: arginine-free fluorescence-quenched peptide derivative ([Tyr(3-NO2)]GSKGPFKL[Dap]K(Abz))
- digestion by hK2 of arginine-free peptides (in words) [1]: none of these three arginine free peptides were digested by hK2
